# Measurements from the supplement of paper PMC10307832.
# Key:
# Experiment in all cases: relative viability (nuclei count vs DMSO), 5 days (fraction); higher = more cells survive
# XMD14-99 = compound: CN1CCN(CC1)C2=CC(=C(C=C2)NC3=NC(=C(S3)C(=O)C4=C(C=CC=C4Cl)Cl)N)OC [XMD14-99]
# Procedure, shortened: (§1)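 Viability is treated-well nuclei as a fraction of vehicle-well nuclei, reported as the median across plates. Before counting, lung cancer cell lines were kept overnight at 37 °C in 1536-well plates, pinned with five √10-spaced library-drug doses on vehicle-anchored plates, and left 5 days without medium change, then fixed, permeabilised and Hoechst-stained in one step, imaged at 4× and counted by MetaXpress. A plate passed only if control CV was below 25% and at least one doubling occurred.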
# AZD1208 = compound: N[C@@H]1CCCN(c2c(/C=C3\SC(=O)NC3=O)cccc2-c2ccccc2)C1 [AZD1208]
# Procedure, shortened: as §1
# XMD14-99 + Trametinib = compound: CN1CCN(CC1)C2=CC(=C(C=C2)NC3=NC(=C(S3)C(=O)C4=C(C=CC=C4Cl)Cl)N)OC [XMD14-99] + CC(=O)Nc1cccc(-n2c(=O)n(C3CC3)c(=O)c3c(Nc4ccc(I)cc4F)n(C)c(=O)c(C)c32)c1 [Trametinib] (partner 0.02 µM)
# Procedure, shortened: (§2)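 Lung cancer cell lines, seeded in 1536-well plates, were treated the following day by pin tool with a single drug or with five library-drug doses (not always all listed) in √10 steps on top of a fixed anchor-drug dose. Cells were fixed and nuclei stained in one step after 5 days, and nuclei were counted. Relative viability is the nuclei count for treated wells divided by that for vehicle wells, reported as medians of duplicate plates.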
# AZD1208 + Navitoclax = compound: N[C@@H]1CCCN(c2c(/C=C3\SC(=O)NC3=O)cccc2-c2ccccc2)C1 [AZD1208] + CC1(C)CCC(c2ccc(Cl)cc2)=C(CN2CCN(c3ccc(C(=O)NS(=O)(=O)c4ccc(N[C@H](CCN5CCOCC5)CSc5ccccc5)c(S(=O)(=O)C(F)(F)F)c4)cc3)CC2)C1 [Navitoclax] (partner 0.5 µM)
# Procedure, shortened: as §2
Cell Line,relative viability (XMD14-99; 0.08 µM),relative viability (XMD14-99; 0.8 µM),relative viability (XMD14-99; 2.53 µM),relative viability (XMD14-99; 8 µM),relative viability (AZD1208; 0.08 µM),relative viability (AZD1208; 0.253 µM),relative viability (AZD1208; 0.8 µM),relative viability (AZD1208; 2.53 µM),relative viability (AZD1208; 8 µM),relative viability (XMD14-99 + Trametinib; first compound 0.08 µM),relative viability (XMD14-99 + Trametinib; first compound 0.8 µM),relative viability (XMD14-99 + Trametinib; first compound 2.53 µM),relative viability (XMD14-99 + Trametinib; first compound 8 µM),relative viability (AZD1208 + Navitoclax; first compound 0.08 µM),relative viability (AZD1208 + Navitoclax; first compound 0.253 µM),relative viability (AZD1208 + Navitoclax; first compound 0.8 µM),relative viability (AZD1208 + Navitoclax; first compound 2.53 µM),relative viability (AZD1208 + Navitoclax; first compound 8 µM)
NCI-H1975,0.992,0.994,0.917,0.788,1.06,1.08,0.909,1.04,0.878,0.263,0.416,0.32,0.308,1.19,1.05,1.14,1.01,1.09
NCI-H1944,0.906,0.917,0.817,0.809,0.963,0.898,0.861,0.822,0.639,0.446,0.374,0.381,0.338,1.05,1.01,0.977,1.01,0.832
LU99A,0.982,1.03,0.896,0.8,0.974,0.963,0.921,0.878,0.807,0.559,0.61,0.512,0.394,0.805,0.855,0.864,0.712,0.514
NCI-H2405,0.962,1.02,0.964,0.726,1.01,0.938,0.942,0.964,0.947,0.641,0.751,0.626,0.575,0.78,0.792,0.84,0.791,0.789
NCI-H2023,0.961,0.875,0.953,0.71,0.863,1.01,0.86,0.867,0.769,0.495,0.562,0.754,0.442,1.02,0.99,0.977,0.934,0.959
HCC-15,1.02,1.03,0.922,0.759,1.01,1.02,0.879,0.939,0.805,0.415,0.412,0.353,0.349,0.632,0.725,0.55,0.642,0.612
HCC-44,1.04,0.969,1.02,0.948,1.11,0.933,1.01,1.09,1.05,1.02,1.04,1.11,1.01,0.91,1.07,0.94,1.04,0.899
COR-L23,1.04,0.891,0.946,0.693,0.969,1.12,0.965,0.99,1,0.518,0.56,0.546,0.363,0.948,1.07,0.931,1.05,0.816
HCC-78,0.985,0.841,0.883,0.571,1.02,1.02,0.963,1.02,1.06,0.628,0.711,0.753,0.438,0.951,0.752,0.672,0.685,0.709
NCI-H838,0.911,0.939,0.873,0.658,0.938,0.967,0.841,0.902,0.844,0.502,0.486,0.433,0.357,1.07,1.18,1.1,1.12,1.01
NCI-H2126,0.993,0.991,0.977,0.897,0.998,0.965,0.942,0.866,0.79,0.545,0.569,0.621,0.56,0.902,0.753,0.812,0.788,0.731
BEN,0.969,0.988,0.961,0.801,0.954,0.84,0.629,0.709,0.537,0.971,1.15,1,0.879,0.0677,0.0668,0.0589,0.0576,0.125
EKVX,0.98,0.892,0.954,0.812,0.988,1.11,0.903,1.04,0.972,0.321,0.298,0.382,0.294,0.931,0.995,0.754,0.933,0.944
LXF-289,1.02,0.964,0.976,0.889,1.05,1.06,1.01,1.03,1.12,0.632,0.639,0.611,0.529,0.955,1.01,0.932,0.978,1.03
NCI-H1650,0.818,0.976,0.805,0.807,0.924,1.1,0.868,0.898,0.88,0.642,0.738,0.542,0.503,1.07,1.15,1.04,1.02,1.19
NCI-H2087,0.957,0.968,0.818,0.483,0.956,1.18,0.821,1.01,1.01,0.174,0.176,0.162,0.122,1.05,1.07,1.03,0.91,0.836
NCI-H1793,0.881,0.892,0.839,0.688,1.02,1.2,0.794,1.01,0.673,0.462,0.38,0.39,0.268,0.336,0.47,0.354,0.469,0.364
LC-2-ad,0.973,0.963,0.929,0.775,1.02,1.03,0.927,0.887,0.899,0.956,0.88,0.998,0.873,0.36,0.356,0.331,0.397,0.489

Cell Line,relative viability (XMD14-99; 0.08 µM),relative viability (XMD14-99; 0.8 µM),relative viability (XMD14-99; 2.53 µM),relative viability (XMD14-99; 8 µM),relative viability (AZD1208; 0.08 µM),relative viability (AZD1208; 0.253 µM),relative viability (AZD1208; 0.8 µM),relative viability (AZD1208; 2.53 µM),relative viability (AZD1208; 8 µM),relative viability (XMD14-99 + Trametinib; first compound 0.08 µM),relative viability (XMD14-99 + Trametinib; first compound 0.8 µM),relative viability (XMD14-99 + Trametinib; first compound 2.53 µM),relative viability (XMD14-99 + Trametinib; first compound 8 µM),relative viability (AZD1208 + Navitoclax; first compound 0.08 µM),relative viability (AZD1208 + Navitoclax; first compound 0.253 µM),relative viability (AZD1208 + Navitoclax; first compound 0.8 µM),relative viability (AZD1208 + Navitoclax; first compound 2.53 µM),relative viability (AZD1208 + Navitoclax; first compound 8 µM)
COR-L 105,0.852,1.14,0.706,0.718,0.837,0.909,0.929,0.712,0.821,0.407,0.493,0.432,0.431,0.679,0.745,0.555,1.13,0.682
NCI-H1355,0.996,0.999,0.89,0.825,1.03,0.983,0.908,0.876,0.789,0.439,0.434,0.355,0.33,0.963,0.861,0.785,0.932,0.853
H3255,0.955,0.957,0.802,0.684,1.04,1.02,0.938,0.934,0.947,0.563,0.67,0.54,0.488,0.511,0.546,0.455,0.462,0.472
NCI-H2009,0.987,1.03,0.887,0.804,1.03,1.07,1.01,0.975,1,0.258,0.317,0.254,0.185,1.2,1.14,1.12,1.21,1.15
NCI-H1734,0.969,0.969,0.922,0.754,0.887,0.989,0.874,0.841,0.647,0.659,0.68,0.653,0.642,0.753,0.932,0.714,0.724,0.582
HOP-62,1.01,1,0.993,0.868,1.09,1.07,0.941,1.02,0.944,0.382,0.419,0.412,0.368,1.05,0.886,1.05,0.969,1.07
LOU-NH91,1.06,0.922,0.898,0.829,1.02,0.889,0.954,0.953,0.892,0.865,0.829,0.793,0.762,0.689,0.709,0.648,0.638,0.577
ChaGo-K-1,0.97,1.03,0.961,0.939,1.13,1.03,0.924,1.04,0.893,0.861,0.863,0.895,0.829,1.16,1.05,1.09,0.834,0.785
NCI-H23,1.01,0.996,0.911,0.685,0.968,1.08,0.902,0.886,0.842,0.487,0.326,0.47,0.364,0.843,1.18,0.721,0.712,0.646
PC-3 [JPC-3],1.08,1.03,0.95,0.818,1.05,1.06,1.08,1.17,1.08,0.749,0.59,0.645,0.577,0.859,0.953,0.792,0.809,0.828
NCI-H1437,0.968,0.903,0.814,0.682,1.06,1.13,1.05,1.03,0.939,0.532,0.402,0.347,0.305,1.13,1.11,1.02,1.16,1.07
NCI-H520,0.903,0.96,0.932,0.818,0.938,1.17,0.943,0.908,0.754,0.656,0.747,0.745,0.437,0.973,1.22,0.991,0.838,0.767
NCI-H1666,1,0.922,0.999,0.877,0.992,1.06,0.881,0.942,0.959,0.883,0.699,0.739,0.864,0.792,0.802,0.706,0.801,0.942
NCI-H1651,0.972,0.984,0.964,0.845,0.954,1.07,0.83,0.928,0.856,0.827,0.835,0.88,0.835,0.879,0.929,0.858,0.887,0.774
NCI-H1755,0.996,0.974,1.01,0.784,0.988,1.07,0.952,0.983,0.792,0.794,0.777,0.752,0.559,0.991,0.989,1.02,0.952,0.786
NCI-H727,1.03,0.815,0.846,0.567,0.891,0.886,0.777,0.755,0.827,0.352,0.403,0.384,0.39,0.421,0.357,0.331,0.316,0.29
HARA,0.894,0.947,0.701,0.692,0.935,1.17,0.974,0.931,0.997,0.577,0.549,0.465,0.466,1.13,1.16,1.2,1.03,1.15
